The nature of this assay: Inhibition of Con A-induced BALB/c mouse T cell proliferation after 48 hrs by [3H]-thymidine incorporation assay. The format is functional, tissue-based.

The structures appear in SMILES notation.

In the case of `C[C@@H]1C(=O)C2=C(COC2=O)[C@@H]2C[C@@](C)(CO)C[C@H]12`, inhibition was half-maximal at 12.3 µM (IC50). In other words, the double-digit micromolar range.

`C[C@@]12CO[C@]3(C1)c1coc(=O)cc1O[C@H](CO)[C@H]3C2`: the IC50 came to 6.6 µM.

(Values after ChEMBL document CHEMBL4665762, “Conosiligins A-D, Ring-Rearranged Tremulane Sesquiterpenoids from Conocybe siliginea” (J Nat Prod, 2020).)
